Several values for one entry are separate records, joined by “and”; a condition that tells them apart may be missing. Equal values may be shown once. Read-outs that look alike come from different tables or passages of the source.
Experiments:
[1] = test system: patients with ALS
[2] = test system: dopamine receptor

## CCCN[C@@H]1CCc2nc(N)sc2C1 [dexpramipexole, (6R)-2-amino-4,5,6,7-tetrahydro-6-(propylamino)benzothiazole]
[1]; 50 mg, through Week 28
  slope estimate of ALSFRS-R scores (linear mixed effects model): −1.283
  slope of ALSFRS-R total scores, zero imputed for first post-death visit: −2.05
  slope of upright vital capacity (linear mixed effects, unadjusted): −2.452
  subjects with feeding tubes placed: 9 (19%) N (%)
[1]; 300 mg
  Unadjusted Slope Estimate, Bulbar: −0.310
  Unadjusted Slope Estimate, Fine: −0.211
  Unadjusted Slope Estimate, Gross: −0.320
  Unadjusted Slope Estimate, Resp: −0.186
  Zero Imputation Slope Estimate, Bulbar: −0.376
  Zero Imputation Slope Estimate, Fine: −0.238
  Zero Imputation Slope Estimate, Gross: −0.338
  Zero Imputation Slope Estimate, Resp: −0.255
[1]; 300 mg compared with 50 mg
  attenuation of decline in vital capacity (adjusted slopes): 21% and 18%
[1]; 300 mg vs 50 mg
  Unadjusted Slope Estimate, Bulbar, % reduction: 14.84%
  Unadjusted Slope Estimate, Fine, % reduction: 32.15%
  Unadjusted Slope Estimate, Gross, % reduction: −4.92%
  Unadjusted Slope Estimate, Resp, % reduction: 31.11%
  Zero Imputation Slope Estimate, Bulbar, % reduction: 34.95%
  Zero Imputation Slope Estimate, Fine, % reduction: 45.91%
  Zero Imputation Slope Estimate, Gross, % reduction: 13.33%
  Zero Imputation Slope Estimate, Resp, % reduction: 55.65%
  reduction in decline of ALSFRS-R slope, zero imputation: 42%
[1]; 300 mg vs 50 mg, Week 28
  smaller decline in ALSFRS-R scores (repeated measures model): 19.7%
[1]; 300 mg, Endpoint of Part 2
  McGill SIS, Mean (SE): 6.1 (0.35)
  McGill SIS, Mean Δ (SE) from baseline: −0.8 (0.30)
  McGill SIS, Median Δ: −1.0
  Upright Vital Capacity, Mean (SE): 61.1 (3.94) % predicted
  Upright Vital Capacity, Mean Δ (SE) from baseline of Part 2: −20.3 (2.88) % predicted
  Upright Vital Capacity, Median Δ: −14.3 % predicted
[1]; 300 mg, Week 8
  McGill SIS, Mean (SE): 6.9 (0.32)
  McGill SIS, Median Δ: 0.0
  Upright Vital Capacity, Mean (SE): 80.3 (3.20) % predicted
  Upright Vital Capacity, Mean Δ (SE) from baseline of Part 2: −1.4 (0.91) % predicted
  Upright Vital Capacity, Median Δ: −0.8 % predicted
[1]; 300 mg, Week 12
  McGill SIS, Mean (SE): 6.5 (0.37)
  McGill SIS, Mean Δ (SE) from baseline: −0.4 (0.25)
  McGill SIS, Median Δ: 0.0
  Upright Vital Capacity, Mean (SE): 78.5 (3.34) % predicted
  Upright Vital Capacity, Mean Δ (SE) from baseline of Part 2: −4.2 (1.91) % predicted
  Upright Vital Capacity, Median Δ: −4.3 % predicted
[1]; 300 mg, Week 16
  McGill SIS, Mean (SE): 6.4 (0.33)
  McGill SIS, Mean Δ (SE) from baseline: −0.4 (0.23)
  McGill SIS, Median Δ: 0.0
[1]; 300 mg, Week 20
  McGill SIS, Mean (SE): 6.4 (0.34)
  McGill SIS, Mean Δ (SE) from baseline: −0.5 (0.30)
  McGill SIS, Median Δ: 0.0
  Upright Vital Capacity, Mean (SE): 70.8 (3.77) % predicted
  Upright Vital Capacity, Mean Δ (SE) from baseline of Part 2: −10.6 (1.58) % predicted
  Upright Vital Capacity, Median Δ: −9.0 % predicted
[1]; 300 mg, Week 24
  McGill SIS, Mean (SE): 6.3 (0.36)
  McGill SIS, Mean Δ (SE) from baseline: −0.7 (0.30)
  McGill SIS, Median Δ: 0.0
[1]; 300 mg, Week 28
  McGill SIS, Mean (SE): 6.0 (0.38)
  McGill SIS, Mean Δ (SE) from baseline: −0.9 (0.31)
  McGill SIS, Median Δ: −1.0
  Upright Vital Capacity, Mean (SE): 67.3 (4.44) % predicted
  Upright Vital Capacity, Mean Δ (SE) from baseline of Part 2: −15.1 % predicted and −15.1 (2.63) % predicted
  Upright Vital Capacity, Median Δ: −11.5 % predicted
  decline in ALSFRS-R scores (repeated measures mixed effect model): −5.66
[1]; 300 mg, double-blind period through Week 28
  subjects who died (incl. after discontinuation): 3 (7%) N (%) and 3 N (%)
[1]; 300 mg, first 24-week randomized active treatment period
  total number of deaths: 2
[1]; 300 mg, through Week 28
  did not require tracheostomy and did not die: 93%
  mean change from baseline in ALSFRS-R total score: −6.2
  slope estimate of ALSFRS-R scores (linear mixed effects model): −1.021
  slope of ALSFRS-R total scores, zero imputed for first post-death visit: −1.19
  slope of upright vital capacity (linear mixed effects, unadjusted): −3.067
  subjects with feeding tubes placed: 6 (14%) N (%)
[2]
  functional affinity difference between pramipexole and dexpramipexole: 10,000-20,000 fold
